Like-named read-outs stand apart in the source and are kept apart here.
What was measured:
Sphaeropsis malorum = assay: Mycelial growth inhibition on agar (contact activity); format: cell-based; conditions: concentration not given
Description: (§1) Die Prüfungen werden nach dem Verfahren zur Ermittlung der Kontaktaktivität durchgeführt. Man verwendet das in Wasser gelöste Kalium-N-(vinyloxyäthyl)dithiocarbamat, führt es in ein Nährmedium ein und vergießt auf Petri-Schalen. Nach 24 Stunden wird mit Pilzmyzelium nach einem Stichverfahren geimpft. Dann temperiert man die Schalen innerhalb von 5 Tagen bei einer zwischen 24 und 26 °C liegenden Temperatur und mißt den Durchmesser von Pilzkolonien, ermittelt den Prozentsatz der Hemmung des Myzelwachstums (S) ausgehend von Angaben am 5. Tag nach der Abbott-Formel [drawing 13] worin dc für den Durchmesser der Pilzkolonien, de für den Durchmesser von Pilzkolonien in der Schale stehen, wo ein die zu prüfenden Stoffe enthaltendes Medium vorhanden ist. Dieses Verfahren zur Ermittlung der mikrobiologischen Aktivität ist in anderen Beispielen verwendet.
(§2) Als Nährmedium dient Würzeagar.

[1] = Storage stability (descriptive); format: physicochemical
Psoroptes cuniculi = assay: Acaricidal activity on isolated mites; format: in vivo
Description: Die akarizide Aktivität der Stoffe wird an isolierten Milben Psoroptes cuniculi als Erreger der Psoroptesräude bei Kaninchen geprüft. Von frischen Verkrustungen von Kaninchen mit Psoroptesräude, werden zu diesem Zweck 50 Milbenexemplare (Larven, Nymphen, Imago) gewählt und in Petri-Schalen auf ein Filterpapierblatt übertragen. Dann bringt man auf Milben und die ganze Blattoberfläche 1,5 ml zu prüfende wäßrige Stofflösung in destilliertem Wasser auf. Die Schale wird mit Deckel verschlossen und in einen Thermostat bei 30 °C und Feuchtegehalt von 90 % angeordnet. Der Wirkstoff wird als wäßrige Lösung mit einer zwischen 0,0039 und 4 % liegenden Konzentration genommen. Als Vergleichsmuster dient gleichzeitig eine wäßrige Lösung von Chlorophos. Milben werden im Kontrollversuch (Kontrolle auf Lebensfähigkeit)mit 1,5 ml physiologischer Lösung behandelt und in einen anderen Thermostat unter gleichen Temperatur- und Feuchtigkeitsbedingungen aufgestellt.
Nach 1, 2, 4, 6 Stunden und alle 24 Stunden betrachtet man die Milben im Mikroskop und zählt die toten Milben. Aufgrund der Milbenvernichtung durch einen 24-stündigen Kontakt mit dem Wirkstoff ermittelt man die LK-50 Werte. Die Versuche werden 5mal wiederholt. Arithmetische Mittelwerte gibt Tabelle 14 an.

Xantomonas malvacearum = assay: Bacterial growth inhibition; format: cell-based; conditions: concentration not given
Fusarium sambucinum = assay: Mycelial growth inhibition on agar (contact activity); format: cell-based; conditions: concentration not given
Description: as §1
(§3) Tabelle 2 zeigt die Angaben für die fungizide Aktivität von Kalium-N-(vinyloxyäthyl)dithiocarbamat und bekannten wirksamen Fungiziden Poly arbazin und TMTD. Der zu prüfende Stoff wurde im Laufe der Versuche in Wasser aufgelöst, und die Kulturen wurden auf einem Kartoffel-Glukose-Nährmedium gezüchtet.

Fusarium moniliforme = assay: as above; format: cell-based; conditions: concentration not given
Description: as §1, §3

[2] = Acute toxicity (LD50) in mice; format: in vivo, weißen Mäusen; conditions: intraabdominale Applikation an weißen Mäusen
[3] = tested on: Cladosporium cladosporioides; assay: Mycelial growth inhibition on agar (contact activity); format: cell-based; conditions: Würzeagar
Description: as §1
(§4) Die Pilzkulturen werden auf Würzeagar gezüchtet. Ergebnisse, erhalten bei der Prüfung der fungiziden Aktivität gegen reine Kulturen von Mikroorganismen, welche Bioschädigungen hervorrufen, sind in der Tabelle 1 dargestellt.

Walrotiela subiculesa = assay: as above; format: cell-based
Description: as §1, §4

Penicillium charlesii = assay: as above; format: cell-based
Description: as §1, §4

Acremonium cowum [4] = assay: as above; format: cell-based; conditions: Würzeagar
Description: as §1, §4

Geotrichum candidum Link = assay: as above; format: cell-based
Description: as §1, §4

Penicillium chrysogenum = assay: as above; format: cell-based
Description: as §1, §4

Acremonium charticola [5] = assay: as above; format: cell-based; conditions: Würzeagar
Description: as §1, §4

Oidium Sp. = assay: as above; format: cell-based; conditions: Würzeagar
Description: as §1, §4

Cladosporium resinae [6] = assay: as above; format: cell-based; conditions: Würzeagar
Description: as §1, §4

Rhizoctonia solani = assay: as above; format: cell-based; conditions: concentration not given
Description: as §1
Die fungizide Aktivität von Zink-bis-(N-vinyloxyäthyldithiocarbamat) gegen reine Kulturen von Pilzen Fusarium moniliforme, Fusarium sambucinum, Aspergillus niger, Rhizoctonia solani, Cladosporium resinae, Cladosporium cladosporioides, Acremonium cowum, Acremonium charticola, Penicillium chrysogenum, Penicillium charlesii Smith, Penicillium funiculosum, Geotrichum candidum Link, Walrotiela subiculesa, Oidium sp., Paecilomyces varioti, Stereum hirsutum wird gemäß Beispiel 8 untersucht.
as §2

Aspergillus niger = assay: as above; format: cell-based; conditions: concentration not given
[7] = Solubility in water (descriptive); format: physicochemical
Micrococcus = assay: Bactericidal activity on agar (concentration of complete growth inhibition); format: cell-based; conditions: % bezogen auf den Wirkstoff; am 5. Tag
Description: (§5) Geprüft wird die bakterizide Aktivität von Kalium-, Natrium-, Zink- und Kupfersalzen der N-(Vinyloxyäthyl)dithiocarbamidsäure gegen Bakterien der Gattungen Bacillus, Micrococcus, Pseudomonas, Escherichia und Xantomonas.
(§6) Man stellt wäßrige Stofflösungen verschiedener Konzentration her, die so berechnet werden, daß die Stoffkonzentration in der Petri-Schale bei der Gabe von 1 ml Lösung in das geschmolzene Nährmedium (45 bis 50 °C) zwischen 0,003 und 25 % (bezogen auf den Wirkstoff) schwankt. Nach 18 bis 24 Stunden bringt man auf die Oberfläche des Nährmediums 0,1 ml wäßrige Suspension eintägiger reiner Kulturen von Bakterien auf und verteilt sie gleichmäßig. In Kontrollschalen verteilt sich 0,1 ml Wasser über die Oberfläche des Nährmediums. Die Inkubation erfolgt bei 37 °C innerhalb von 5 Tagen. Die Wirksamkeit der Stoffe wird nach dem Auftreten des Bakterienwachstums auf der Oberfläche des Nährmediums eingeschätzt. Die Prüfergebnisse sind in der Tabelle 13 dargestellt.

Pseudomonas = assay: as above; format: cell-based; conditions: % bezogen auf den Wirkstoff; am 5. Tag
Description: as §5, §6

Bacillus = assay: as above; format: cell-based; conditions: % bezogen auf den Wirkstoff; am 5. Tag
Description: as §5, §6

Escherichia = assay: as above; format: cell-based; conditions: % bezogen auf den Wirkstoff; am 5. Tag
Description: as §5, §6

Xantomonas = assay: as above; format: cell-based; conditions: % bezogen auf den Wirkstoff; am 5. Tag
Description: as §5, §6

[8] = tested on: gewöhnlichen Mehlkäfern und Schwarmspinnerraupen; assay: Antifeedant activity; format: in vivo; conditions: Vergleichsmuster Brestan
Excerpt: Die Prüfung der antiphydanten Aktivität wurde an gewöhnlichen Mehlkäfern und Schwarmspinnerraupen durchgeführt.

[9] = tested on: Cladosporium cladosporioides; assay: Mycelial growth inhibition on agar (contact activity); format: cell-based; conditions: Tabelle 12
Cladosporium resinae [10] = assay: as above; format: cell-based; conditions: Tabelle 12
Acremonium cowum [11] = assay: as above; format: cell-based; conditions: Tabelle 12
Acremonium charticola [12] = assay: as above; format: cell-based; conditions: Tabelle 12
[13] = Präparatkonzentration 0,0015 %, Würzeagar
[14] = Präparatkonzentration 0,003 %, Würzeagar
[15] = Präparatkonzentration 0,006 %, Würzeagar
[16] = Präparatkonzentration 0,012 %, Würzeagar
[17] = Konzentration des Praparats 0,1 %
[18] = Konzentration des Praparats 0,2 %
[19] = Konzentration des Praparats 0,4 %
[20] = Konzentration des Praparats 0,05 %
[21] = Konzentration des Praparats 0,8 %
[22] = Konzentration des Praparats 0,1 %, Tabelle 12
[23] = Konzentration des Praparats 0,2 %, Tabelle 12
[24] = Konzentration des Praparats 0,4 %, Tabelle 12
[25] = Konzentration des Praparats 0,05 %, Tabelle 12
[26] = Konzentration des Praparats 0,8 %, Tabelle 12

C=COCCNC(=S)S [Natrium-N-(vinyloxyäthyl)dithiocarbamat]
unterdrückt das Wachstum des Myzeliums der Pilze (Sphaeropsis malorum): 100%
Lagerbeständigkeit [1]: lagerbeständig
LK-50 % (Psoroptes cuniculi; 24-stündiger Kontakt mit dem Wirkstoff): 0,0022%
Vernichtung von 100 % der Milben nach Stunden (Psoroptes cuniculi; Konzentration 0,0039 %): 48 Stunden
Vernichtung von 100 % der Milben nach Stunden (Psoroptes cuniculi; Konzentration 0,0078 %): 24 Stunden
Vernichtung von 100 % der Milben nach Stunden (Psoroptes cuniculi; Konzentration 0,0625 bis 0,125 %): 6 Stunden
Vernichtung von 100 % der Milben nach Stunden (Psoroptes cuniculi; Konzentration 0,125 bis 0,5 %): 4 Stunden
selektive Toxizität gegen Räudemilben, dem Chlorophos überlegen (Psoroptes cuniculi; gegenüber Chlorophos): ~400 mal
unterdrückt das Wachstum von Bakterien (Xantomonas malvacearum): 33%
unterdrückt das Wachstum des Myzeliums der Pilze (Fusarium sambucinum): 100%
unterdrückt das Wachstum des Myzeliums der Pilze (Fusarium moniliforme): 100%
LD50 ([2]; mouse, in vivo, ip, read-out: LD50): 260 mg/kg
Myzelhemmung in % ([3]; Präparatkonzentration 0,0015 %): 100%
Myzelhemmung in % ([3]; Präparatkonzentration 0,003 %): 100%
Myzelhemmung in % ([3]; Präparatkonzentration 0,006 %): 100%
Myzelhemmung in % ([3]; Präparatkonzentration 0,012 %): 100%
Myzelhemmung in % (Walrotiela subiculesa; [13]): 100%
Myzelhemmung in % (Walrotiela subiculesa; [14]): 100%
Myzelhemmung in % (Walrotiela subiculesa; [15]): 100%
Myzelhemmung in % (Walrotiela subiculesa; [16]): 100%
Myzelhemmung in % (Penicillium charlesii; [13]): 25%
Myzelhemmung in % (Penicillium charlesii; [14]): 40%
Myzelhemmung in % (Penicillium charlesii; [15]): 90%
Myzelhemmung in % (Penicillium charlesii; [16]): 100%
Myzelhemmung in % (Acremonium cowum [4]; Präparatkonzentration 0,0015 %): 100%
Myzelhemmung in % (Acremonium cowum [4]; Präparatkonzentration 0,003 %): 100%
Myzelhemmung in % (Acremonium cowum [4]; Präparatkonzentration 0,006 %): 100%
Myzelhemmung in % (Acremonium cowum [4]; Präparatkonzentration 0,012 %): 100%
Myzelhemmung in % (Geotrichum candidum Link; [13]): 5%
Myzelhemmung in % (Geotrichum candidum Link; [14]): 40%
Myzelhemmung in % (Geotrichum candidum Link; [15]): 75%
Myzelhemmung in % (Geotrichum candidum Link; [16]): 100%
Myzelhemmung in % (Penicillium chrysogenum; [13]): 5%
Myzelhemmung in % (Penicillium chrysogenum; [14]): 20%
Myzelhemmung in % (Penicillium chrysogenum; [15]): 80%
Myzelhemmung in % (Penicillium chrysogenum; [16]): 100%
Myzelhemmung in % (Acremonium charticola [5]; Präparatkonzentration 0,0015 %): 100%
Myzelhemmung in % (Acremonium charticola [5]; Präparatkonzentration 0,003 %): 100%
Myzelhemmung in % (Acremonium charticola [5]; Präparatkonzentration 0,006 %): 100%
Myzelhemmung in % (Acremonium charticola [5]; Präparatkonzentration 0,012 %): 100%
Myzelhemmung in % (Oidium Sp.; Präparatkonzentration 0,0015 %): 60%
Myzelhemmung in % (Oidium Sp.; Präparatkonzentration 0,003 %): 100%
Myzelhemmung in % (Oidium Sp.; Präparatkonzentration 0,006 %): 100%
Myzelhemmung in % (Oidium Sp.; Präparatkonzentration 0,012 %): 100%
Myzelhemmung in % (Cladosporium resinae [6]; Präparatkonzentration 0,0015 %): 90%
Myzelhemmung in % (Cladosporium resinae [6]; Präparatkonzentration 0,003 %): 100%
Myzelhemmung in % (Cladosporium resinae [6]; Präparatkonzentration 0,006 %): 100%
Myzelhemmung in % (Cladosporium resinae [6]; Präparatkonzentration 0,012 %): 100%
unterdrückt das Wachstum des Myzeliums der Pilze (Rhizoctonia solani): 100%
unterdrückt das Wachstum des Myzeliums der Pilze (Aspergillus niger): 100%
Löslichkeit in Wasser [7]: gut

Kupfer-N-(vinyloxyäthyl)dithiocarbamat
Konzentrationen, welche das Bakterienwachstum völlig (100 %) hemmen (Micrococcus): 0,25%
Konzentrationen, welche das Bakterienwachstum völlig (100 %) hemmen (Pseudomonas): 0,25%
Konzentrationen, welche das Bakterienwachstum völlig (100 %) hemmen (Bacillus): 0,25%
Konzentrationen, welche das Bakterienwachstum völlig (100 %) hemmen (Escherichia): 0,25%
Konzentrationen, welche das Bakterienwachstum völlig (100 %) hemmen (Xantomonas): 0,25%
antiphydante Aktivität [8]: auf gleicher Höhe mit Brestan
Lagerbeständigkeit [1]: lagerbeständig
Myzelhemmung in % [9, 17]: 100%
Myzelhemmung in % [9, 18]: 100%
Myzelhemmung in % [9, 19]: 100%
Myzelhemmung in % [9, 20]: 45%
Myzelhemmung in % [9, 21]: 100%
Myzelhemmung in % (Cladosporium resinae [10]; [17]): 43%
Myzelhemmung in % (Cladosporium resinae [10]; [18]): 75%
Myzelhemmung in % (Cladosporium resinae [10]; [19]): 100%
Myzelhemmung in % (Cladosporium resinae [10]; [20]): 34%
Myzelhemmung in % (Cladosporium resinae [10]; [21]): 100%
LD50 [2]: 267 mg/kg
Myzelhemmung in % (Walrotiela subiculesa; [22]): 50%
Myzelhemmung in % (Walrotiela subiculesa; [23]): 45%
Myzelhemmung in % (Walrotiela subiculesa; [24]): 100%
Myzelhemmung in % (Walrotiela subiculesa; [25]): 0%
Myzelhemmung in % (Walrotiela subiculesa; [26]): 100%
Myzelhemmung in % (Penicillium charlesii; [22]): 26%
Myzelhemmung in % (Penicillium charlesii; [23]): 37%
Myzelhemmung in % (Penicillium charlesii; [24]): 92%
Myzelhemmung in % (Penicillium charlesii; [25]): 24%
Myzelhemmung in % (Penicillium charlesii; [26]): 100%
Myzelhemmung in % (Geotrichum candidum Link; [22]): 100%
Myzelhemmung in % (Geotrichum candidum Link; [23]): 100%
Myzelhemmung in % (Geotrichum candidum Link; [24]): 100%
Myzelhemmung in % (Geotrichum candidum Link; [25]): 30%
Myzelhemmung in % (Geotrichum candidum Link; [26]): 100%
Myzelhemmung in % (Penicillium chrysogenum; [22]): 4%
Myzelhemmung in % (Penicillium chrysogenum; [23]): 40%
Myzelhemmung in % (Penicillium chrysogenum; [24]): 85%
Myzelhemmung in % (Penicillium chrysogenum; [25]): 4%
Myzelhemmung in % (Penicillium chrysogenum; [26]): 100%
Myzelhemmung in % (Acremonium cowum [11]; [17]): 100%
Myzelhemmung in % (Acremonium cowum [11]; [18]): 100%
Myzelhemmung in % (Acremonium cowum [11]; [19]): 100%
Myzelhemmung in % (Acremonium cowum [11]; [20]): 50%
Myzelhemmung in % (Acremonium cowum [11]; [21]): 100%
Myzelhemmung in % (Acremonium charticola [12]; [17]): 50%
Myzelhemmung in % (Acremonium charticola [12]; [18]): 100%
Myzelhemmung in % (Acremonium charticola [12]; [19]): 100%
Myzelhemmung in % (Acremonium charticola [12]; [20]): 43%
Myzelhemmung in % (Acremonium charticola [12]; [21]): 100%
Löslichkeit in Wasser [7]: unlöslich
